Data: patent US5373020A, “Substituted 5-(2-((2-aryl-2-hydroxyethyl)amino)propyl)-1,3-benzodioxoles” (American Cyanamid Company, priority 1993, dated 1994)
Counter-ions that a name gives are not always drawn.

Assays:
β3-receptors = target: T1, β3-receptors (Rattus norvegicus, UniProt P26255); assay: Stimulation of adipocyte lipolysis (β3-effect); type: cell-based
T1 construct: Rat epididymal fat pads were excised and placed in 0.9% saline; from tissue; host or cells: collagenase-isolated adipocytes from rat epididymal fat pads
T1 sequence (P26255 whole entry): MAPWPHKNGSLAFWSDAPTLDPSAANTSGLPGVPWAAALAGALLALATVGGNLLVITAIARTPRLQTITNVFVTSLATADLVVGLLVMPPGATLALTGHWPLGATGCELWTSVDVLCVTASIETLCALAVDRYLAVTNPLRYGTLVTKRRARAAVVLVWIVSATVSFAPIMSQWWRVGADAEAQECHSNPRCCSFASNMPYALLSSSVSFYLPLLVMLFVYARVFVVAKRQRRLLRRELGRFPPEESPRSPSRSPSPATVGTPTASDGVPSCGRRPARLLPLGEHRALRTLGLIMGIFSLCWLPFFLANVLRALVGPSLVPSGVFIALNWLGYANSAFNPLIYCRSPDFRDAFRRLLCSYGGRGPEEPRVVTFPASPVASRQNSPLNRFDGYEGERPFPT
Experimental: (§1) β-Adrenergic receptors can be divided into β1, β2 and β3 -subtypes. Activation of β1 -receptors invokes increases in heart rate while activation of β2 -receptors stimulates glycogen breakdown in muscle and thereby prevents glycogen synthesis. Activation of β3 -receptors stimulates lipolysis (the breakdown of adipose tissue triglycerides to glycerol and free fatty acids), and thereby promotes the loss of fat mass.
The β3 -effect of the compounds was determined by their ability to stimulate adipocyte lipolysis. Rat epididymal fat pads were excised and placed in 0.9% saline. Four grams of tissue were transferred to a flask with 20 ml of aerated Krebs-Henseleit bicarbonate (KHB) buffer containing 3% fatty acid-free bovine serum albumin to which 75 mg of crude bacterial collagenase (Worthington) had been added. The tissue was incubated for about 45 minutes at 37° C. with gentle shaking. The cells were then washed three times with two volumes of KHB buffer, filtered through two layers of gauze, and brought to a final volume of 80 ml with KHB buffer. One ml aliquots of the cell suspension were added to plastic test tubes containing the appropriate additions of vehicle or compound. The cells were gassed for 1 minute with 95% O2 -5% CO2, capped, and incubated at 37° C. with continuous shaking for a total of 30 minutes. The reaction was stopped by adding 0.1 ml of 30% perchloric acid and 0.1 ml of chloroform. After centrifugation, 0.5 ml of supernatant was transferred to another test tube and neutralized with 0.04 ml of 3M K2 CO3 -0.5M triethanolamine. The amount-of glycerol generated from the hydrolysis of endogenous triglycerides was determined in a coupled-enzyme spectrophotometric assay. […] The test tubes were incubated for 40 minutes at 37° C. with constant shaking. […] This value was corrected for the amount of NADH generated in the absence of glycerol by incubating another aliquot of the neutralized extract with the same assay mixture but without glycerokinase.

ob/ob mice [1] = assay: Plasma glucose, compound in chow, obese mice; type: in vivo, mouse (C57 B1/6J ob/ob)
Experimental: (§2) The compounds of this invention were tested for hypoglycemic and anti-obesity activity according to the following procedure.
(§3) Obese mice (C57 B1/6J (ob/ob)), and/or diabetic mice (C57 B1/KsJ (db/db)) were obtained from Jackson Laboratories, Bar Harbor, Maine. Obese rats (fa/fa) were obtained from Charles River Laboratories, Wilmington, Mass. Obese mice were 8 weeks of age and diabetic mice were 9 weeks of age at the start of the test. Obese rats were 12-14 weeks of age at the start.
(§4) The test compounds were dissolved in methanol, mixed with powdered Purina rodent chow on a weight of compound to weight of chow basis and thoroughly dried.
(§5) Groups of 6 control mice or rats received vehicle (methanol) treated chow.
[…] Thus, a 40 g mouse, fed the test compound at a concentration of 0.02 percent of the diet, would receive a dose of 20 mg/kg/day if it ate 4 g of chow per day.
(§6) The mice or rats were weighed before the first treatment and once at the end of each indicated treatment period.
(§7) Blood samples were collected before the first treatment and once at the end of each indicated treatment period by retro-orbital puncture using heparinized capillary tubes.
(§8) Plasma was separated by centrifugation in a Beckman microfuge for 5 minutes. Plasma glucose concentrations were determined with the Beckman glucose analyzer which uses a glucose oxidase method.

β1-receptors = target: T2, β1-receptors (Cavia porcellus, UniProt H0W3H1); assay: Effect on heart rate of isolated right atria (β1-effect); design: species or system guinea pig
T2 construct: from tissue; host or cells: guinea pig right atria
T2 sequence (H0W3H1 1-470): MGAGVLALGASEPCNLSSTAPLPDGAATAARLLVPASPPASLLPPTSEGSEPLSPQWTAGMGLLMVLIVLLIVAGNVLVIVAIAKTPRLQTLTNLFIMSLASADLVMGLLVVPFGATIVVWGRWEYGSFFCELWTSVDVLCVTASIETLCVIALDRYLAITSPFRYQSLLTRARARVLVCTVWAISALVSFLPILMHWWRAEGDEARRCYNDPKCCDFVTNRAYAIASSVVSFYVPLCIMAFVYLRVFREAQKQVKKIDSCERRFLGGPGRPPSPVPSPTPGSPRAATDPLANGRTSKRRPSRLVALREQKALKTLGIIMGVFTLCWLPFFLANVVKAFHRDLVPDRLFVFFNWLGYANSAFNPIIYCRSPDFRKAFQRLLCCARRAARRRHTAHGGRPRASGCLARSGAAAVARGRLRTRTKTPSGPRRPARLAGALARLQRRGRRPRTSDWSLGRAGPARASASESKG
Experimental: as §1
Selectivity of a compound was determined using the following procedures. The effect on heart rate (β1 -effect) was determined using isolated right atria. […] The right atria were dissected and clamped at one end to a tissue holder and electrode assembly (MRA Corp.) and tied at the other end to a force-displacement transducer (Gould-Statham, Burco). The tissues were maintained at 32° C. in a 50 ml capacity glass chamber (MRA Corp.) preloaded with 0.5 g tension. Heart rate was monitored by a Grass polygragh. […] The increase in heart rate was calculated and considered to be the maximum response for that tissue. The tissues were then washed and allowed to equilibrate for 90 minutes. Cumulative concentration-response curves were then determined for each compound or vehicle. All responses were measured 5 minutes post-exposure.

ob/ob mice [2] = assay: Change in weight and food consumption, compound in chow, obese mice; type: in vivo, mouse (C57 B1/6J ob/ob)
Experimental: as §2, §3, §4, §5
(§9) Groups of 6 test mice were fed ad libitum for up to seven weeks and food consumption was measured daily by weighing the food bins before and after the addition of fresh chow. Thus, a 40 g mouse, fed the test compound at a concentration of 0.02 percent of the diet, would receive a dose of 20 mg/kg/day if it ate 4 g of chow per day.
as §6

db/db mice = assay: Plasma glucose, compound in chow, diabetic mice; type: in vivo, mouse (C57 B1/KsJ db/db)
Experimental: as §2, §3, §4, §5, §9, §6, §7, §8

[3] = dose 0.0005 % wt of chow, week 0 (before treatment)
[4] = dose 0.0005 % wt of chow, week 1
[5] = dose 0.0005 % wt of chow, week 4
[6] = dose 0.002 % wt of chow, week 0 (before treatment)
[7] = dose 0.002 % wt of chow, week 1
[8] = dose 0.002 % wt of chow, week 4
[9] = dose 0.005 % wt of chow, week 0 (before treatment)
[10] = dose 0.005 % wt of chow, week 1
[11] = dose 0.005 % wt of chow, week 4

COC(=O)C1(C(=O)OC)Oc2ccc(C[C@@H](C)NC[C@H](O)c3cccc(Cl)c3)cc2O1 (stereo in doubt) [CL1, (R* R*)-(±)-5-(2-((2-(3-chlorophenyl)-2-hydroxyethyl)amino)propyl)-1,3-benzodioxole-2,2-dicarboxylic acid, dimethyl ester hydrobromide]
times more selective for lipolysis than prior art compound (β3-receptors; CL2 vs BRL2, CL1 vs BRL1): 3 times | Relative Selectivity (CL/BRL), Atria (β3-receptors; CL2 vs BRL2, CL1 vs BRL1, lipolysis over atria): 3.1 | Relative Selectivity (CL/BRL), Gly. Syn. (β3-receptors; CL2 vs BRL2, CL1 vs BRL1, lipolysis over glycogen synthesis): 3.0 | Selectivity for Lipolysis over Atria ((EC50 - β1)/(EC50 - β3)) (β3-receptors; ratio EC50 β1 / EC50 β3): 47 | Selectivity for Lipolysis over Gly. Syn. ((EC50 - β2)/(EC50 - β3)) (β3-receptors; ratio EC50 β2 / EC50 β3): 27 | Plasma Glucose Levels (ob/ob mice [1]; [3]): 270 mg/100 ml | Plasma Glucose Levels (ob/ob mice [1]; [4]): 164 mg/100 ml | Plasma Glucose Levels (ob/ob mice [1]; [5]): 179 mg/100 ml | Plasma Glucose Levels (ob/ob mice [1]; [6]): 276 mg/100 ml | Plasma Glucose Levels (ob/ob mice [1]; [7]): 150 mg/100 ml | Plasma Glucose Levels (ob/ob mice [1]; [8]): 156 mg/100 ml | Plasma Glucose Levels (ob/ob mice [1]; [9]): 237 mg/100 ml | Plasma Glucose Levels (ob/ob mice [1]; [10]): 143 mg/100 ml | Plasma Glucose Levels (ob/ob mice [1]; [11]): 157 mg/100 ml | EC50 (β1-receptors): 0.014 µM | Average Daily Food Consumption (ob/ob mice [2]; dose 0.0005 % wt of chow): 5.6 g/animal | Change in weight (ob/ob mice [2]; [4]): 0.5 grams | Change in weight (ob/ob mice [2]; dose 0.0005 % wt of chow, week 2): 2.2 grams | Change in weight (ob/ob mice [2]; dose 0.0005 % wt of chow, week 3): 3.2 grams | Change in weight (ob/ob mice [2]; [5]): 5.2 grams | Average Daily Food Consumption (ob/ob mice [2]; dose 0.002 % wt of chow): 5.6 g/animal | Change in weight (ob/ob mice [2]; [7]): -0.3 grams | Change in weight (ob/ob mice [2]; dose 0.002 % wt of chow, week 2): 1.1 grams | Change in weight (ob/ob mice [2]; dose 0.002 % wt of chow, week 3): 1.6 grams | Change in weight (ob/ob mice [2]; [8]): 3.2 grams | Average Daily Food Consumption (ob/ob mice [2]; dose 0.005 % wt of chow): 5.8 g/animal | Change in weight (ob/ob mice [2]; [10]): -1.1 grams | Change in weight (ob/ob mice [2]; dose 0.005 % wt of chow, week 2): -0.7 grams | Change in weight (ob/ob mice [2]; dose 0.005 % wt of chow, week 3): -0.2 grams | Change in weight (ob/ob mice [2]; [11]): 1.6 grams | Plasma Glucose Levels (db/db mice; [3]): 452 mg/100 ml | Plasma Glucose Levels (db/db mice; [4]): 162 mg/100 ml | Plasma Glucose Levels (db/db mice; dose 0.0005 % wt of chow, week 5): 164 mg/100 ml | Plasma Glucose Levels (db/db mice; dose 0.0005 % wt of chow, week 7): 17 mg/100 ml | Plasma Glucose Levels (db/db mice; [6]): 453 mg/100 ml | Plasma Glucose Levels (db/db mice; [7]): 151 mg/100 ml | Plasma Glucose Levels (db/db mice; dose 0.002 % wt of chow, week 5): 150 mg/100 ml | Plasma Glucose Levels (db/db mice; dose 0.002 % wt of chow, week 7): 16 mg/100 ml | Plasma Glucose Levels (db/db mice; [9]): 447 mg/100 ml | Plasma Glucose Levels (db/db mice; [10]): 148 mg/100 ml | Plasma Glucose Levels (db/db mice; dose 0.005 % wt of chow, week 5): 138 mg/100 ml | Plasma Glucose Levels (db/db mice; dose 0.005 % wt of chow, week 7): 18 mg/100 ml
